According to US11071731B2, “Allosteric modulators of the mu opioid receptor” (Chiromics, LLC, priority 2017, dated 2021):

Key:
mu opioid receptor (MOR) [1] = molecular target: T1, mu opioid receptor (MOR) (Homo sapiens, UniProt P35372); assay: Hit Hunter cAMP signaling assay (adenylyl cyclase inhibition), PAM mode with EC20 endomorphin-1; assay type: cell-based
mu opioid receptor (MOR) [2] = molecular target: T1, mu opioid receptor (MOR); assay: PathHunter β-arrestin recruitment assay, PAM mode with EC20 endomorphin-1; assay type: cell-based; details: for EC50: read-out: β-arr. EC50
Procedure, shortened: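 Enzyme fragment complementation read-out: β-gal ED fragment fused to receptor, EA fused to β-arrestin, recruitment restoring β-gal activity detected by chemiluminescence. EC50 and percent maximal response derived for each compound.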

[3] = adenylyl cyclase inhibition, read-out: cAMP EC50
[4] = maximal response for adenylyl cyclase inhibition
[5] = maximal response for β-arrestin recruitment
[6] = cAMP EC50, adenylyl cyclase inhibition
[7] = maximal response, adenylyl cyclase inhibition
[8] = maximal response, β-arrestin recruitment

T1 sequence (P35372 whole entry): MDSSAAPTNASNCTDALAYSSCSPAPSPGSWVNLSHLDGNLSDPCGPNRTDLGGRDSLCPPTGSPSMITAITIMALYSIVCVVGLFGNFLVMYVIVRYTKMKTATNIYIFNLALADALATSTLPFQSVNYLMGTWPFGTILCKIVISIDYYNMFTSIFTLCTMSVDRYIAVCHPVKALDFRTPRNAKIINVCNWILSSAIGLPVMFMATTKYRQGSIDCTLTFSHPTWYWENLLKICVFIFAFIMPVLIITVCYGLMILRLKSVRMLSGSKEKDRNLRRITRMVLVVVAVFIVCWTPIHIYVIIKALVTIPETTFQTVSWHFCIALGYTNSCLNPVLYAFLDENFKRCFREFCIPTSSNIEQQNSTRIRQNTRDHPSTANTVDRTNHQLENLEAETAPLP

CN1CCN(c2nc(Cl)ncc2F)C(c2cc(F)cc(C(F)(F)F)c2)C1 (racemic) [Compound 305] was tested, and the EC50 (mu opioid receptor (MOR) [1]; [3]) was 700 to 2100 nM, the “cAMP Max. Resp.” value (mu opioid receptor (MOR) [1]; [4]) was “F (F represents a maximal response of > 60%)” and the “β-arr Max. Resp.” value (mu opioid receptor (MOR) [2]; [5]) was “F (F represents a maximal response of > 60%)”. The EC50 (mu opioid receptor (MOR) [2]; β-arrestin recruitment) was 700 to 2100 nM.

Fc1c(Cl)ncnc1N1CCCCC1c1cccc(C(F)(F)F)c1 (centres unmarked) [compound 351] was tested, and the EC50 (mu opioid receptor (MOR) [1]; [6]) was less than 700 nM, the “cAMP Max. Resp.” value (mu opioid receptor (MOR) [1]; [4]) was “D (D represents a maximal response of < 40%)” and the “β-arr Max. Resp.” value (mu opioid receptor (MOR) [2]; [5]) was “D (D represents a maximal response of < 40%)”. It also gave an EC50 (mu opioid receptor (MOR) [2]; β-arrestin recruitment) of less than 700 nM.

Fc1ccc(C2CC(F)CN2c2nc(Cl)ncc2F)cc1Cl (centres unmarked) [compound 464] was tested, and the EC50 (mu opioid receptor (MOR) [1]; [3]) was greater than 2100 nM, the “cAMP Max. Resp.” value (mu opioid receptor (MOR) [1]; [7]) was “E (E represents a maximal response of 40-60%)” and the “β-arr Max. Resp.” value (mu opioid receptor (MOR) [2]; [8]) was “E (E represents a maximal response of 40-60%)”. The EC50 (mu opioid receptor (MOR) [2]; β-arrestin recruitment) was greater than 2100 nM.

O=S(=O)(c1ccc(Cl)cc1)N1CCOCC1c1ccc(F)c(Br)c1 (racemic) [Compound 185] was tested, and the EC50 (mu opioid receptor (MOR) [1]; [3]) was greater than 2100 nM, the “cAMP Max. Resp.” value (mu opioid receptor (MOR) [1]; [4]) was “D (D represents a maximal response of < 40%)” and the “β-arr Max. Resp.” value (mu opioid receptor (MOR) [2]; [5]) was “F (F represents a maximal response of > 60%)”. The EC50 (mu opioid receptor (MOR) [2]; β-arrestin recruitment) was 700 to 2100 nM.

Fc1cc(C2CC(F)CN2c2nc(Cl)ncc2F)cc(C(F)(F)F)c1 (centres unmarked) [compound 468] was tested, and the EC50 (mu opioid receptor (MOR) [1]; [3]) was greater than 2100 nM, the “cAMP Max. Resp.” value (mu opioid receptor (MOR) [1]; [7]) was “F (F represents a maximal response of > 60%)” and the “β-arr Max. Resp.” value (mu opioid receptor (MOR) [2]; [8]) was “F (F represents a maximal response of > 60%)”. The EC50 (mu opioid receptor (MOR) [2]; β-arrestin recruitment) was greater than 2100 nM.

For Cc1ccc(C2CCCCN2S(=O)(=O)c2ccc(Cl)cc2)cc1Br (racemic) [compound 70], the EC50 (mu opioid receptor (MOR) [1]; [3]) was greater than 2100 nM, the “cAMP Max. Resp.” value (mu opioid receptor (MOR) [1]; [4]) was “E (E represents a maximal response of 40-60%)” and the “β-arr Max. Resp.” value (mu opioid receptor (MOR) [2]; [5]) was “F (F represents a maximal response of > 60%)”. It also gave an EC50 (mu opioid receptor (MOR) [2]; β-arrestin recruitment) greater than 2100 nM.

For Fc1cnc(Cl)nc1N1CCCCC1c1cc(Cl)ccn1 (centres unmarked) [compound 408], the EC50 (mu opioid receptor (MOR) [1]; [6]) was less than 700 nM, the “cAMP Max. Resp.” value (mu opioid receptor (MOR) [1]; [4]) was “D (D represents a maximal response of < 40%)” and the “β-arr Max. Resp.” value (mu opioid receptor (MOR) [2]; [5]) was “D (D represents a maximal response of < 40%)”. For the same compound, the EC50 (mu opioid receptor (MOR) [2]; β-arrestin recruitment) was less than 700 nM.

For CC1CCN(S(=O)(=O)c2ccc(Cl)cc2)C1c1ccc(F)c(C(F)(F)F)c1 (mixture of isomers) [compound 100], the EC50 (mu opioid receptor (MOR) [1]; adenylyl cyclase inhibition, Table 3, read-out: cAMP EC50) was greater than 25000 nM, the EC50 (mu opioid receptor (MOR) [1]; [3]) was greater than 2100 nM and the “cAMP Max. Resp.” value (mu opioid receptor (MOR) [1]; [4]) was “D (D represents a maximal response of < 40%)”. The “cAMP Max Resp.” value (mu opioid receptor (MOR) [1]; maximal response for adenylyl cyclase inhibition, Table 3) was 25, the “β-arr Max. Resp.” value (mu opioid receptor (MOR) [2]; [5]) was “F (F represents a maximal response of > 60%)” and the “β-arr. Max Resp.” value (mu opioid receptor (MOR) [2]; maximal response for β-arrestin recruitment, Table 3) was 76. For the same compound, the EC50 (mu opioid receptor (MOR) [2]; β-arrestin recruitment, Table 3) was 522 nM and the EC50 (mu opioid receptor (MOR) [2]; β-arrestin recruitment) was less than 700 nM.

In the case of Oc1ncnc(N2CCCCC2c2cccc(C(F)(F)F)c2)c1F (centres unmarked) [compound 356], the EC50 (mu opioid receptor (MOR) [1]; [6]) is reported as less than 700 nM, the “cAMP Max. Resp.” value (mu opioid receptor (MOR) [1]; [4]) is reported as “D (D represents a maximal response of < 40%)” and the “β-arr Max. Resp.” value (mu opioid receptor (MOR) [2]; [5]) is reported as “D (D represents a maximal response of < 40%)”. It also gave an EC50 (mu opioid receptor (MOR) [2]; β-arrestin recruitment) of less than 700 nM.

For O=S(=O)(c1cccc(Cl)c1F)N1CCCCC1c1cccc(C(F)(F)F)c1 (centres unmarked) [Compound 28], the EC50 (mu opioid receptor (MOR) [1]; [3]) was 700 to 2100 nM, the “cAMP Max. Resp.” value (mu opioid receptor (MOR) [1]; [4]) was “D (D represents a maximal response of < 40%)” and the “β-arr Max. Resp.” value (mu opioid receptor (MOR) [2]; [5]) was “F (F represents a maximal response of > 60%)”. For the same compound, the EC50 (mu opioid receptor (MOR) [2]; β-arrestin recruitment) was 700 to 2100 nM.

In the case of Fc1cc(C2CCCCN2Cc2cc(Cl)ccc2F)cc(C(F)(F)F)c1 (centres unmarked) [compound 167], the EC50 (mu opioid receptor (MOR) [1]; [6]) is reported as 700 to 2100 nM, the “cAMP Max. Resp.” value (mu opioid receptor (MOR) [1]; [4]) is reported as “F (F represents a maximal response of > 60%)” and the “β-arr Max. Resp.” value (mu opioid receptor (MOR) [2]; [5]) is reported as “F (F represents a maximal response of > 60%)”. For the same compound, the EC50 (mu opioid receptor (MOR) [2]; β-arrestin recruitment) was less than 700 nM.

Fc1c(Cl)cccc1CN1CCCCC1c1cccc(C(F)(F)F)n1 (centres unmarked) [compound 172] was tested, and the EC50 (mu opioid receptor (MOR) [1]; [6]) was less than 700 nM, the “cAMP Max. Resp.” value (mu opioid receptor (MOR) [1]; [4]) was “E (E represents a maximal response of 40-60%)” and the “β-arr Max. Resp.” value (mu opioid receptor (MOR) [2]; [5]) was “F (F represents a maximal response of > 60%)”. It also gave an EC50 (mu opioid receptor (MOR) [2]; β-arrestin recruitment) of 700 to 2100 nM.

With Fc1cc(C2CSCCN2c2nc(Cl)ncc2F)cc(C(F)(F)F)c1 (racemic) [Compound 301] the EC50 (mu opioid receptor (MOR) [1]; [3]) was less than 700 nM, the “cAMP Max. Resp.” value (mu opioid receptor (MOR) [1]; [4]) was “E (E represents a maximal response of 40-60%)” and the “β-arr Max. Resp.” value (mu opioid receptor (MOR) [2]; [5]) was “F (F represents a maximal response of > 60%)”. It also gave an EC50 (mu opioid receptor (MOR) [2]; β-arrestin recruitment) of 700 to 2100 nM.
